According to PubChem BioAssay AID192 (DTP/NCI, 2004):
“And” between values parts separate entries of the source, which are not always exact repeats. Identical values can stand only once. Inconclusive results and toxic doses are left out. Numbered stars: 1 amine (or outer) side, 2 acyl side, 3 side chain; on linkers, the order of the positions; unused ones are H or OH. Bridge positions count the residues as written; N and C are the ends. Square brackets hold non-standard residues; d marks the D form. Peptide text beside a SMILES is read from it. I, II: the chains in the order shown. Actinocin(1to9) = Cc1c2oc3c(C)ccc(C(=O)[*:2])c3nc-2c(C(=O)[*:1])c(N)c1=O; X1 = O=C1CC(C(=O)[*:2])N([*:1])C1; NMeV = CN[CH](C(=O)O)C(C)C; Sar = CNCC(=O)O

System: BDF1 mice, B16 melanoma ip, median survival T/C
Experiment: NCI In Vivo Anticancer Drug Screen. Data for tumor model B16 Melanoma (intraperitoneal) in B6D2F1 (BDF1) mice
Settings: endpoint: median survival time, higher = longer survival
In short: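 Mice with transplantable tumors; drug vs vehicle groups; endpoint survival or tumor size; value = T/C.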

[1] = dose: 50.0 mg/kg/injection, schedule: Q01DX009 (ip), vehicle: Klucel (hydroxypropylcellulose) (HPC)
[2] = dose: 100.0 mg/kg/injection, schedule: Q01DX009 (ip), vehicle: Klucel (hydroxypropylcellulose) (HPC)
[3] = dose: 200.0 mg/kg/injection, schedule: Q01DX009 (ip), vehicle: Klucel (hydroxypropylcellulose) (HPC)
[4] = dose: 25.0 mg/kg/injection, schedule: Q01DX009 (ip), vehicle: Klucel (hydroxypropylcellulose) (HPC)
[5] = dose: 25.0 mg/kg/injection, schedule: Q01DX009 (ip), vehicle: saline with Tween-80
[6] = dose: 6.25 mg/kg/injection, schedule: Q01DX009 (ip), vehicle: saline with Tween-80
[7] = dose: 50.0 mg/kg/injection, schedule: Q01DX009 (ip), vehicle: saline with Tween-80
[8] = dose: 100.0 mg/kg/injection, schedule: Q01DX009 (ip), vehicle: saline with Tween-80

In the case of `CC1CCC2(C)CCC3(C)C(=CCC4C5(C)CCC(O)C(C)(C)C5CCC43C)C2C1C` (centres undefined), the T/C [1] is reported as 99 % of control, the T/C [2] is reported as 97 % of control and the T/C [3] is reported as 90 % of control.

`C=C1C(=O)C2(C)OC2(C)C1C(=O)O` (centres undefined) was tested, and the T/C (dose: 1.25 mg/kg/injection, schedule: Q01DX009 (ip), vehicle: Klucel (hydroxypropylcellulose) (HPC)) was 109 % of control, the T/C (dose: 2.5 mg/kg/injection, schedule: Q01DX009 (ip), vehicle: Klucel (hydroxypropylcellulose) (HPC)) was 105 % of control and the T/C (dose: 5.0 mg/kg/injection, schedule: Q01DX009 (ip), vehicle: Klucel (hydroxypropylcellulose) (HPC)) was 99 % of control. The T/C (dose: 10.0 mg/kg/injection, schedule: Q01DX009 (ip), vehicle: Klucel (hydroxypropylcellulose) (HPC)) was 93 % of control.

For `CC(C)N=C(N)/N=C(\N)Nc1ccc2ccc3ccccc3c2c1`, the T/C (dose: 6.25 mg/kg/injection, schedule: Q01DX009 (ip), vehicle: Klucel (hydroxypropylcellulose) (HPC)) was 112 % of control, the T/C (dose: 12.5 mg/kg/injection, schedule: Q01DX009 (ip), vehicle: Klucel (hydroxypropylcellulose) (HPC)) was 103 % of control and the T/C [4] was 87 % of control.

`CCCCCCCCCCCCCCCCCC[N+](C)(C)c1nc(Cl)nc(Cl)n1` was tested, and the T/C (dose: 3.13 mg/kg/injection, schedule: Q01DX009 (ip), vehicle: other) was 98 % of control, the T/C (dose: 6.25 mg/kg/injection, schedule: Q01DX009 (ip), vehicle: other) was 100 % of control and the T/C (dose: 12.5 mg/kg/injection, schedule: Q01DX009 (ip), vehicle: other) was 99 % of control.

With `CC1(C)CC(O)(C(Cl)c2ccccc2)C(=O)c2ccccc21` (centres undefined) the T/C [1] was 103 % of control, the T/C [2] was 95 % of control and the T/C [3] was 94 % of control. The T/C (dose: 400.0 mg/kg/injection, schedule: Q01DX009 (ip), vehicle: Klucel (hydroxypropylcellulose) (HPC)) was 90 % of control.

With `CCOC1CCC2C(CCC(/C=C/c3ccc(O)c4ncccc34)N2C)C1` (centres undefined) the T/C [5] was 111 % of control.

For `COC(=O)CCC1=C(C)c2cc3[n-]c(cc4nc(cc5[n-]c(cc1n2)c(CCC(=O)OC)c5C)C=C4C)cc3C.[Ni+2]`, the T/C (dose: 1.56 mg/kg/injection, schedule: Q01DX009 (ip), vehicle: saline with Tween-80) was 91 % of control, the T/C (dose: 3.13 mg/kg/injection, schedule: Q01DX009 (ip), vehicle: saline with Tween-80) was 88 % of control and the T/C [6] was 86 % of control.

With `CCCC1CC[N-]CC1.CCCC1CC[N-]CC1.CCCC1CC[N-]CC1.CCCC1CC[N-]CC1.CS(C)=O.CS(C)=O.[Cl-].[Cl-].[Cl-].[Cl-].[Cl][Rh][Cl].[Rh+3]` the T/C (dose: 1.56 mg/kg/injection, schedule: Q01DX009 (ip), vehicle: water) was 105 % of control, the T/C (dose: 3.13 mg/kg/injection, schedule: Q01DX009 (ip), vehicle: water) was 107 % of control and the T/C (dose: 6.25 mg/kg/injection, schedule: Q01DX009 (ip), vehicle: water) was 120 % of control. The T/C (dose: 25.0 mg/kg/injection, schedule: Q01DX009 (ip), vehicle: water) was 124 % of control.

`Cc1cc(C)cc(OC(=O)/C=C/C(=O)Oc2cc(C)cc(C)c2)c1` was tested, and the T/C [5] was 98 % of control, the T/C [7] was 87 % of control and the T/C [8] was 93 % of control.

`CNCCCC1c2ccccc2C=Cc2ccccc21` was tested, and the T/C (dose: 1.56 mg/kg/injection, schedule: Q01DX009 (ip), vehicle: saline) was 106 % of control, the T/C (dose: 3.12 mg/kg/injection, schedule: Q01DX009 (ip), vehicle: saline) was 118 % of control and the T/C (dose: 6.25 mg/kg/injection, schedule: Q01DX009 (ip), vehicle: saline) was 103 % of control. For the same compound, the T/C (dose: 12.5 mg/kg/injection, schedule: Q01DX009 (ip), vehicle: saline) was 112 % of control and the T/C (dose: 25.0 mg/kg/injection, schedule: Q01DX009 (ip), vehicle: saline) was 109 % of control.

With `Cc1c2oc3c(C)ccc(C(=O)NC4C(=O)NC(C(C)C)C(=O)N5CCCC5C(=O)N(C)CC(=O)N(C)C(C(C)C)C(=O)OC4C)c3nc-2c(C(=O)NC2C(=O)NC(C(C)C)C(=O)N3CC(=O)CC3C(=O)N(C)CC(=O)N(C)C(C(C)C)C(=O)OC2C)c(N)c1=O` (centres undefined) (I: TV[X1][Sar][NMeV] / II: TVP[Sar][NMeV]; ester I:1-I:C, II:1-II:C; linker I:N-II:N via Actinocin(1to9); configuration not given here) the T/C (dose: 6.2 micrograms/kg/injection, schedule: Q01DX009 (ip), vehicle: water) was 123 % of control, the T/C (dose: 9.4 micrograms/kg/injection, schedule: Q04DX003 (ip), vehicle: water) was 106 % of control and the T/C (dose: 18.7 micrograms/kg/injection, schedule: Q04DX003 (ip), vehicle: water) was 123 % of control. For the same compound, the T/C (dose: 25.0 micrograms/kg/injection, schedule: Q01DX001 (ip), vehicle: water) was 123 % of control, the T/C (dose: 50.0 micrograms/kg/injection, schedule: Q01DX001 (ip), vehicle: water) was 116 % of control and the T/C (dose: 100.0 micrograms/kg/injection, schedule: Q01DX001 (ip), vehicle: water) was 106 % of control.

`CCC12C=CCN3CCC4(c5cc(C6c7[nH]c8ccccc8c7CCN7CCCCC67)c(OC)cc5N(C)C4C(O)(C(=O)OC)C1OC(C)=O)C32` (centres undefined) was tested, and the T/C (dose: 0.06 mg/kg/injection, schedule: Q01DX009 (ip), vehicle: other) was 98 % of control, the T/C (dose: 0.13 mg/kg/injection, schedule: Q01DX009 (ip), vehicle: other) was 96 % of control and the T/C (dose: 0.25 mg/kg/injection, schedule: Q01DX009 (ip), vehicle: other) was 96 % of control. For the same compound, the T/C (dose: 0.5 mg/kg/injection, schedule: Q01DX009 (ip), vehicle: other) was 108 % of control, the T/C (dose: 1.0 mg/kg/injection, schedule: Q01DX009 (ip), vehicle: other) was 108 % of control and the T/C (dose: 2.0 mg/kg/injection, schedule: Q01DX009 (ip), vehicle: other) was 108 % of control.

`O=NN(CCCl)C(=O)NC1OC(CO)C(O)C(O)C1O` (centres undefined) was tested, and the T/C (dose: 0.16 mg/kg/injection, schedule: Q01DX009 (ip), vehicle: saline) was 107 % of control, the T/C (dose: 0.31 mg/kg/injection, schedule: Q01DX009 (ip), vehicle: saline) was 111 % of control and 116 % of control and the T/C (dose: 0.62 mg/kg/injection, schedule: Q01DX009 (ip), vehicle: saline) was 108 % of control. The T/C (dose: 1.25 mg/kg/injection, schedule: Q01DX009 (ip), vehicle: saline) was 178 % of control, the T/C (dose: 2.5 mg/kg/injection, schedule: Q01DX009 (ip), vehicle: saline) was 188 % of control and the T/C (dose: 5.0 mg/kg/injection, schedule: Q01DX009 (ip), vehicle: saline) was 193 % of control.

With `CCCCN(C)/N=N/c1[nH]ncc1C(=O)OCC` the T/C (dose: 78.7 mg/kg/injection, schedule: Q01DX009 (ip), vehicle: carboxymethylcellulose (CMC)) was 109 % of control, the T/C (dose: 118.0 mg/kg/injection, schedule: Q01DX009 (ip), vehicle: carboxymethylcellulose (CMC)) was 118 % of control and the T/C (dose: 177.0 mg/kg/injection, schedule: Q01DX009 (ip), vehicle: carboxymethylcellulose (CMC)) was 118 % of control. For the same compound, the T/C (dose: 266.0 mg/kg/injection, schedule: Q01DX009 (ip), vehicle: carboxymethylcellulose (CMC)) was 109 % of control.

For `COc1ccc2cc1Oc1ccc(cc1)C[C@H]1c3cc(c(OC)cc3CCN1C)Oc1c(O)c(OC)cc3c1[C@H](C2)N(C)CC3`, the T/C (dose: 25.0 mg/kg/injection, schedule: Q01DX009 (ip), vehicle: acid diluted with saline) was 116 % of control and the T/C (dose: 50.0 mg/kg/injection, schedule: Q01DX009 (ip), vehicle: acid diluted with saline) was 105 % of control.

`O=C(/C=C/C(=O)Oc1ccc(Cl)cc1Cl)Oc1ccc(Cl)cc1Cl` was tested, and the T/C [4] was 100 % of control, the T/C [1] was 91 % of control and the T/C [2] was 88 % of control and 94 % of control.

`COc1ccc2c(c1Oc1ccc([N+](=O)[O-])cc1[N+](=O)[O-])C13CCN(C)C(C2)C1CCC1(C3)OCCO1` (centres undefined) was tested, and the T/C [2] was 111 % of control and the T/C [3] was 86 % of control.

For `NC(=S)n1cccn1`, the T/C [5] was 96 % of control, the T/C [7] was 114 % of control and the T/C [8] was 94 % of control.

`O=C(Nc1ccccc1)Nc1cc(C(F)(F)F)ccc1Cl` was tested, and the T/C (dose: 100.0 mg/kg/injection, schedule: Q04DX009 (ip), vehicle: Klucel (hydroxypropylcellulose) (HPC)) was 109 % of control, the T/C (dose: 200.0 mg/kg/injection, schedule: Q04DX003 (ip), vehicle: carboxymethylcellulose (CMC)) was 90 % of control and the T/C (dose: 200.0 mg/kg/injection, schedule: Q04DX009 (ip), vehicle: Klucel (hydroxypropylcellulose) (HPC)) was 106 % of control. The T/C (dose: 400.0 mg/kg/injection, schedule: Q04DX003 (ip), vehicle: carboxymethylcellulose (CMC)) was 92 % of control and the T/C (dose: 400.0 mg/kg/injection, schedule: Q04DX009 (ip), vehicle: Klucel (hydroxypropylcellulose) (HPC)) was 86 % of control.

With `Cc1c2ccnc(-c3ccccc3)c2cc2c1[nH]c1ccccc12` the T/C [5] was 115 % of control, the T/C [7] was 104 % of control and the T/C [8] was 94 % of control and 96 % of control.

In the case of `COc1ccc(N=C=S)cc1N=C=S`, the T/C [6] is reported as 102 % of control, the T/C (dose: 6.25 mg/kg/injection, schedule: Q04DX003 (ip), vehicle: saline with Tween-80) is reported as 105 % of control and the T/C (dose: 12.5 mg/kg/injection, schedule: Q01DX009 (ip), vehicle: saline with Tween-80) is reported as 92 % of control. The T/C (dose: 12.5 mg/kg/injection, schedule: Q04DX003 (ip), vehicle: saline with Tween-80) was 115 % of control, the T/C [5] was 100 % of control and the T/C (dose: 25.0 mg/kg/injection, schedule: Q04DX003 (ip), vehicle: saline with Tween-80) was 113 % of control.
